Key:
[1] = molecular target: Signal transducer and activator of transcription 3 (Homo sapiens, UniProt P40763); assay: Inhibition of IFNgamma-induced STAT3 activation in human HeLa cells expressing p4xM67-tk-Luc treated 30 mins before […] challenge measured after 6 hrs; assay type: cell-based
[2] = Inhibition of TNFalpha-induced NF-kappaB activation in human HIV-1-LTR-luc 5.1 cells treated 30 mins before TNFalpha challenge measured after 6 hrs

Chain of Signal transducer and activator of transcription 3 (P40763 whole entry): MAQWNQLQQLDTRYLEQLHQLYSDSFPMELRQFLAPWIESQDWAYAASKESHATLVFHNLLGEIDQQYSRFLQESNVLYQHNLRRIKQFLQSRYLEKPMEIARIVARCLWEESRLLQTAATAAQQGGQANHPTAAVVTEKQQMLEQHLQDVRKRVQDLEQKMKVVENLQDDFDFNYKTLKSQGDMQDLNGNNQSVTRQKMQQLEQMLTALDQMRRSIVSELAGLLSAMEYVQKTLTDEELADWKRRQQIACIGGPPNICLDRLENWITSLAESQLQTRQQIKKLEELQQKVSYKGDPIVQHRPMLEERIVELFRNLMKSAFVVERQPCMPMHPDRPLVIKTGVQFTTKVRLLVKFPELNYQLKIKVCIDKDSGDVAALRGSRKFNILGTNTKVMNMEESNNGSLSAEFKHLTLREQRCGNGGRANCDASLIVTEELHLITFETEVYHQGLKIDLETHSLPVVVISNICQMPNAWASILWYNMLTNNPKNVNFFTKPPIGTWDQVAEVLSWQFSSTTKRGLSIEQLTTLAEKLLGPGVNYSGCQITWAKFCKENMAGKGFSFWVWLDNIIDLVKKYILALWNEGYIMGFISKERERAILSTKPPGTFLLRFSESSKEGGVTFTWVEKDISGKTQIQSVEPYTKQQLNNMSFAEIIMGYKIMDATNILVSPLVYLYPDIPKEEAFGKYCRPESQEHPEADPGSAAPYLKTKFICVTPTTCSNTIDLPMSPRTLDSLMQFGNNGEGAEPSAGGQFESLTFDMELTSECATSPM

IC50 [1]	IC50 [2]	Structure (SMILES)
110 µM	60 µM	CC(C)=CCC[C@](C)(O[C@@H]1O[C@H](C)[C@H](O)[C@H](OC(=O)C=C(C)C)[C@H]1O)[C@@H]1CC=C(C)CC1 (relative stereo)
73 µM	> 220 µM	CC(C)=CCC[C@](C)(O)[C@@H]1CC=C(C)CC1 (relative stereo) [LEVOMENOL]
6.3 µM	110 µM	CC(C)=CCC[C@](C)(O[C@@H]1O[C@H](C)[C@H](O)[C@H](O)[C@H]1O)[C@@H]1CC=C(C)CC1 (relative stereo)
